Measurements as given in patent publication US20120052528A1, “METHOD FOR PRODUCING SELECTIVE MEDIUM AND USE THEREOF” (THE UNIVERSITY OF TOKYO, priority 2009, published 2012).

Assays:
[1] = system: contaminating germs in soil; experiment: Limited search of carbon sources: assimilation by contaminating germs in soil; type: cell-based; details: conclusion from Table 5
other bacterial cells = experiment: Limited search of carbon sources: colony formation of other bacterial cells from a soil suspension on carbon-source agar medium; details: soil suspension smeared on agar medium with the carbon source, 30° C., 5 days; relative value, carbon source-free medium = 100%
Protocol: (§1) Any carbon source, crystal violet (antibiotic) and agar are mixed with basic medium components so as to prepare an agar medium. A soil suspension (100 p1) prepared by suspending of soil for plant cultivation (1 g) in water (100 ml) is smeared (repeatedly 3 times) on the medium, followed by culture at 30° C. for 5 days. The numbers of colonies of filamentous bacterial cells and other bacterial cells that are formed on the medium are counted. Each counted value is represented as a relative value (%) determined based on the number of colonies formed on a “carbon source-free” medium (100%). If the degree of colony formation is less than 30 (for filamentous bacterial cells) and is less than 60 (for bacterial cells), the carbon source is selected as a carbon source having high growth inhibitory effects. The smaller value indicates the smaller number of contaminating germs (filamentous bacteria and other bacteria) that assimilate the carbon source.

[2] = system: filamentous bacterial cells; experiment: Limited search of carbon sources: colony formation of filamentous bacterial cells from a soil suspension on carbon-source agar medium; details: soil suspension smeared on agar medium with the carbon source, 30° C., 5 days; relative value, carbon source-free medium = 100%
Protocol: as §1

Row | Compound | likelihood of assimilation of the carbon source by contaminating germs in soil [1] | Other bacterial cells Average number of grown colonies ± standard error (other bacterial cells) [%] | Filamentous bacterial cells Average number of grown colonies ± standard error [2] [%]
1 | CC[C@H](C)[C@H](N)C(=O)O [Isoleucine] | less likely to be assimilated | 44 ± 2 | 28 ± 2
2 | NCCCC[C@H](N)C(=O)O [Lysine] | less likely to be assimilated | 56 ± 5 | 33 ± 14
3 | OC[C@H]1O[C@@H](O[C@H]2[C@H](O)[C@@H](O)C(O)O[C@@H]2CO)[C@H](O)[C@@H](O)[C@H]1O (stereo partly drawn) [Lactose] | – | 77 ± 4 | 128 ± 2
4 | O[C@H]1[C@H](O)[C@@H](O)[C@H](O)[C@@H](O)[C@H]1O [Inositol] | less likely to be assimilated | 57 ± 7 | 0 ± 0
5 | N=C(N)NCCC[C@H](N)C(=O)O [Arginine] | less likely to be assimilated | 99 ± 3 | 19 ± 8
6 | OC[C@@H](O)[C@@H](O)[C@H](O)[C@@H](O)CO [Sorbitol] | – | 63 ± 5 | 128 ± 2
7 | O=C(CO)[C@@H](O)[C@H](O)[C@H](O)CO [Fructose] | – | 84 ± 3 | 100 ± 0
8 | O=C(CO)[C@H](O)[C@@H](O)[C@H](O)CO [Sorbose] | – | 68 ± 3 | 128 ± 2
9 | NCC(=O)O [Glycine] | – | 69 ± 5 | 72 ± 2
10 | CSCC[C@H](N)C(=O)O [Methionine] | less likely to be assimilated | 38 ± 4 | 38 ± 16
11 | N[C@@H](Cc1ccc(O)cc1)C(=O)O [Tyrosine] | less likely to be assimilated | 55 ± 4 | 81 ± 39
12 | N[C@@H](CCC(=O)O)C(=O)O [Glutamic acid] | – | 66 ± 6 | 83 ± 14
13 | N[C@@H](Cc1c[nH]cn1)C(=O)O [Histidine] | – | 62 ± 2 | 203 ± 32
14 | OC[C@@H](O)[C@@H](O)[C@H](O)[C@H](O)CO [Mannitol] | less likely to be assimilated | 54 ± 4 | 27 ± 17
15 | O=C[C@H](O)[C@@H](O)[C@H](O[C@@H]1O[C@H](CO)[C@@H](O)[C@H](O)[C@H]1O)[C@H](O)CO [Cellobiose] | – | 76 ± 5 | 42 ± 18
16 | O=C(O)[C@@H]1CCCN1 [Proline] | less likely to be assimilated | 66 ± 4 | 11 ± 9

Row | Compound | likelihood of assimilation of the carbon source by contaminating germs in soil [1] | Other bacterial cells Average number of grown colonies ± standard error (other bacterial cells) [%] | Filamentous bacterial cells Average number of grown colonies ± standard error [2] [%]
17 | CC(C)[C@H](N)C(=O)O [Valine] | less likely to be assimilated | 38 ± 5 | 19 ± 8
18 | N[C@@H](Cc1c[nH]c2ccccc12)C(=O)O [Tryptophan] | – | 100 ± 5 | 167 ± 18
19 | C[C@@H](O)[C@H](N)C(=O)O [Threonine] | less likely to be assimilated | 59 ± 5 | 0 ± 0
20 | Polygalacturonic acid | less likely to be assimilated | 19 ± 2 | 8 ± 7
21 | OC[C@H]1O[C@@](CO)(O[C@H]2O[C@H](CO)[C@@H](O)[C@H](O)[C@H]2O)[C@@H](O)[C@@H]1O [Sucrose] | – | 71 ± 4 | 211 ± 15
22 | CC(C)C[C@H](N)C(=O)O [Leucine] | less likely to be assimilated | 42 ± 3 | 67 ± 141
23 | OC[C@H]1O[C@H](O[C@H]2O[C@H](CO)[C@@H](O)[C@H](O)[C@H]2O)[C@H](O)[C@@H](O)[C@@H]1O [Trehalose] | less likely to be assimilated | 51 ± 7 | 156 ± 5
24 | OC[C@@H](O)[C@@H](O)[C@@H](O)CO [Ribitol] | – | 67 ± 2 | 139 ± 11
25 | NC(=O)CC[C@H](N)C(=O)O [Glutamine] | – | 66 ± 4 | 100 ± 0
26 | O=C(O)C(O)C(O)C(=O)O (stereo not drawn) [Tartaric acid] | – | 81 ± 3 | 64 ± 6
27 | N[C@@H](Cc1ccccc1)C(=O)O [Phenylalanine] | less likely to be assimilated | 36 ± 6 | 47 ± 19
28 | O=C([O-])CCCCC(=O)[O-].[Na+].[Na+] [Sodium adipate] | – | 122 ± 10 | 36 ± 18
29 | N[C@@H](CC(=O)O)C(=O)O [Aspartic acid] | less likely to be assimilated | 32 ± 3 | 11 ± 9
30 | O=C[C@@H](O)[C@H](O)[C@H](O)CO [Arabinose] | less likely to be assimilated | 51 ± 2 | 100 ± 0
31 | N[C@@H](CO)C(=O)O [Serine] | – | 87 ± 3 | 131 ± 16
